Format in all cases: functional, cell-based
For data set [1], the target named is T1, Multidrug resistance-associated protein 1 (Homo sapiens, UniProt P33527). The data set can be described thus: TP_TRANSPORTER: transport in etoposide-selected MCF7 cells.
The target of data set [2] is T1, Multidrug resistance-associated protein 1. Nature of the data set: TP_TRANSPORTER: cell accumulation in MCF7/MRP1-M6 cells.
Data set [3] has the same target. The data set can be described thus: TP_TRANSPORTER: cell accumulation in MCF7/MRP1-M24 cells.
The target is the same in data set [4]. The data set can be described thus: TP_TRANSPORTER: cell accumulation in MCF7/MRP1-10 cells.
Data set [5] has the same target. Nature of the data set: TP_TRANSPORTER: ATP- and GSH-dependent transport in MCF7/MRP1-10 cells.

T1 sequence (P33527 whole entry): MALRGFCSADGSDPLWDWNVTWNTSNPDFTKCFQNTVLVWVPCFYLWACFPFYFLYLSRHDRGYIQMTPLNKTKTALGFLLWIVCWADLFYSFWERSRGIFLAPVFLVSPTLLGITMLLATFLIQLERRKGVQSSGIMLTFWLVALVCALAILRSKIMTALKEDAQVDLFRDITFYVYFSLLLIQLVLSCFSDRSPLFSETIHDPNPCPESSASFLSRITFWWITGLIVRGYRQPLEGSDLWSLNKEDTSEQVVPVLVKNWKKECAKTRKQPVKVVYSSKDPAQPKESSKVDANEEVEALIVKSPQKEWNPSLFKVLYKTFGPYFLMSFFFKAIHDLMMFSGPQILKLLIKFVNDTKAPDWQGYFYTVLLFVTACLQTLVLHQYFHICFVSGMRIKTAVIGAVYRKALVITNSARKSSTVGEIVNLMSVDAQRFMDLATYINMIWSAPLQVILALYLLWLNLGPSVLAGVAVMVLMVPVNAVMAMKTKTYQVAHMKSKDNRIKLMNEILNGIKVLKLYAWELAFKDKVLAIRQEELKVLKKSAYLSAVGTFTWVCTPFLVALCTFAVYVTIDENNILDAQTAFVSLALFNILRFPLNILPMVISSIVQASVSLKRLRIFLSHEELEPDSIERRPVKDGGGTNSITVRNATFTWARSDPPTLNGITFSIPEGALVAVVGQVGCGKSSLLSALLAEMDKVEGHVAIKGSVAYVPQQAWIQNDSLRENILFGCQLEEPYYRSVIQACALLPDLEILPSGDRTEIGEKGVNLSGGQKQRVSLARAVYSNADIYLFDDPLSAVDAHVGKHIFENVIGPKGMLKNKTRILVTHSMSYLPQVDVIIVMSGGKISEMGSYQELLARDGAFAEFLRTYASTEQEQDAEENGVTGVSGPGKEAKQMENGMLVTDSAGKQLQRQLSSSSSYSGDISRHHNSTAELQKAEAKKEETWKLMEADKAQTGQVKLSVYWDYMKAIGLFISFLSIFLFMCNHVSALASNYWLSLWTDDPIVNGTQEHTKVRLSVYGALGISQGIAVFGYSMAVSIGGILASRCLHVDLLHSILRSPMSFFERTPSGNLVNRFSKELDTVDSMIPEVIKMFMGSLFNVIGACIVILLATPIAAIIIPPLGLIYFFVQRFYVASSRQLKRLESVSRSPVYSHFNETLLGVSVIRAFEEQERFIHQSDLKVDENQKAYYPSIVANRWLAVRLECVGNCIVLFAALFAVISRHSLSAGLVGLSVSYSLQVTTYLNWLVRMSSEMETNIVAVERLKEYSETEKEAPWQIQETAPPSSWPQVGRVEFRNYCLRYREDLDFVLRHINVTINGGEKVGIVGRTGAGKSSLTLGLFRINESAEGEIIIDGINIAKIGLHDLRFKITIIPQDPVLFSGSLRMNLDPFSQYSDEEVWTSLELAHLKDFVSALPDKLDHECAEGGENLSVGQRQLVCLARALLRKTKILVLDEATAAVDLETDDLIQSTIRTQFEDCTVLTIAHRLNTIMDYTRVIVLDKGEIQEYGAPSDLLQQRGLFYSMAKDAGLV

For `O=C1c2c(O)ccc(O)c2C(=O)c2c(NCCNCCO)ccc(NCCNCCO)c21` [MITOXANTRONE], the Activity entry in data set [1] and in data set [5] was “substrate [+]” in each case. Further, the IC50 in data set [2] stood at 1.5 nM; in data set [3], 1.5 nM; in data set [4] it was 1.9 nM.

These data come from ChEMBL document CHEMBL2074176, “Multidrug resistance protein 1 (MRP1, ABCC1) mediates resistance to mitoxantrone via glutathione-dependent drug efflux” (Mol Pharmacol, 2006).
